These results are taken from patent publication US9809623B2, “α4β7 peptide monomer and dimer antagonists” (Protagonist Therapeutics, Inc., priority 2014, dated 2017).

Numbered stars: 1 amine (or outer) side, 2 acyl side, 3 side chain; on linkers, the order of the positions; unused ones are H or OH. Bridge positions count the residues as written; N and C are the ends. Square brackets hold non-standard residues; d marks the D form. Peptide text beside a SMILES is read from it. I, II: the chains in the order shown. Phe(4-tBu) = CC(C)(C)c1ccc(C[C@H](N)C(=O)O)cc1; Diglycolyl = O=C(COCC(=O)[*:2])[*:1]; NMeR = CN[C@@H](CCCNC(=N)N)C(=O)O; β3hE = N[C@@H](CCC(=O)O)CC(=O)O; Pen = CC(C)(S)[C@H](N)C(=O)O

One series can be described thus: Plasma Stability Assay. It is filed as in vitro ADME. Particulars: rat, Table 4-C, t1/2. A digest of the protocol: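 Rat plasma at 37° C with gentle shaking, peptide added from 10 mM stock; samples taken at 0, 10, 30, 45, 60, 120 and 180 min and quenched 1:4 with acetonitrile/0.1% formic acid. After centrifugation, supernatants were mixed with internal standard peptide (1 ug/mL) and analysed by LC-MS.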

Another series in a line: Intestinal Wash Assay. Type of series: in vitro ADME. Also noted: dose or concentration left out as unconfirmed. The settings on record: rat, rat intestinal wash fluid (small intestine); Table 4-C, t1/2. How it is done: Intestinal wash assay solution was prepared from rats fasted for at least 6 hours prior. The animals were euthanized and a midline incision was made from the point of the jaw to the pubis. The abdomen and chest were opened by making 2 incisions through the anterior chest wall on either side. Hemostats were used to clamp off both ends of the animal's stomach—where the esophagus meets the stomach and where the stomach meets the duodenum. A hemostat was also used to clamp 2-3 cm down the intestine from where the stomach meets the duodenum.
Intestinal wash assay solution was prepared by separating 20 cm of the small intestine from the body. Once separated 20 cm, the end was clamped with a hemostat and the section cut from the body, leaving the hemostats in place on the removed section. 1 mL of chilled saline was drawn up with a 1 mL syringe. One end of the intestine was held up and the clamp removed. Approximately 2-2.5 cm of the gavage needle was inserted into the intestine, and the saline was slowly injected. The fluid was massaged down the length of the intestine using gloved fingers. The gavage needle was removed and the clamp was replaced on the end of the intestine. The intestine was sat straight and a q-tip was run firmly up and down the length of the outside of the intestine approximately 3-6 times to mix the enzymes with the saline. One end of the intestine was held up and some of the fluid was carefully moved at the top down. The clamp was removed and that end of the intestine was set into a small weigh boat on ice. The other end of the intestine was carefully picked up and held vertically. Gloved fingers were gently run down it to squeeze the fluid into the container. The previous steps saline injection and fluid procurement steps were repeated twice using only 0.5 mL of chilled saline. The sample was pipetted from the weigh boat into a centrifuge tube and placed on ice. All intestinal wash samples were spun down in a cold centrifuge at 12,000×g for 10 minutes. The supernatant from the top of each centrifuged sample was pipetted into cryotubes, and kept on ice until use.
Intestinal wash assays were performed using intestinal wash assay solution prepared as described above. A sufficient amount of rat intestinal wash was thawed. For each sample, 200 uL of rat intestinal wash fluid was pipetted into 1.5 mL Eppendorf tubes (number of tubes for experiment=number of test peptides×N). The tubes were pre-incubated for about 10 minutes in a water bath at 37° C.
Peptide working solutions ([…]) were prepared by combining 2 μl of 10 mM DMSO stock with 128 μl 100 mM Tris pH 7.5.
Peptide quench solvent (50% ACN-50% MeOH-5% Formic Acid)+IS (5 ug/ml; 1 ul of 10 mg/mL IS per 2 mL quench solvent) was prepare and a quench plate prepared and placed on ice. 200 ul of quench solution was added to each well of the quench plate for T=0, 10, 20, 30, 60 and 180 min collection.
For each test sample and a positive control, 30 ul of peptide working solution was added to a tube of intestinal wash fluid. The tube was gently vortexed and 30 ul was immediately removed and quenched in T=0 well of quench plate (pipetted directly into the quench solution). This well was covered tightly to prevent evaporation. 30 ul aliquots were removed at T=10 min, T=20 min, T=30 min, T=60 min, and T=180 min, and quenched. When all time points were collected, the quench plate was centrifuged at 10,000 rpm for 10 minutes. 150 uL of each supernatant was transferred to a polypropylene 96-well collection plate. 300 ul Mobile Phase A was added to each collection, and LC/MS/MS analysis was performed to determine the amount or concentration of peptide remaining in each test sample and positive control.

Series [1] in a line: Cysteine/Cystine Redox Stability Assay. Type of series: physicochemical. The settings on record: Table 4-C; ORP where half of the oxidized peptide remains. Here is the method: Peptides were diluted to 90 μM by adding 4.545 μl of a 10 mM peptide DMSO stock to 495.45 μl of 100 mM Tris-Cl, pH 7.5. Aliquots of […] were transferred to 8 wells down a column of a 96 well plate. 20 μl of 2.5 mM Cystine in 100 mM Tris-Cl, pH 7.5 was added to each well. Cysteine stock solutions in 100 mM Tris-Cl, pH 7.5 were prepared fresh at the following concentrations: 400 mM, 200 mM, 80 mM, 44 mM, 22 mM, 11 mM, 5.5 mM and blank. At time 0, 25 μl of each cysteine stock solution was added to the 55 μl of cystine/peptide solution, and the mixture was incubated at room temperature for 40 min. The samples were quenched by adding 20 μl of 5M acetic acid and analyzed by reverse phase HPLC. The fraction of oxidized peptide was calculated and plotted against the calculated oxidation reduction potential (ORP) as defined by the Nernst equation. The ORP where half of the oxidized peptide remains is shown below.

As usually defined, the half-life is the time needed for the level to fall by half in the phase considered. Turning to `CC(=O)N[C@H]1CSSC(C)(C)[C@@H](C(=O)N[C@@H](Cc2c[nH]c3ccccc23)C(=O)N[C@H](CCCCNC(=O)COCC(=O)NCCCC[C@@H](NC(=O)[C@H](Cc2c[nH]c3ccccc23)NC(=O)[C@H]2NC(=O)[C@H](CC(C)C)NC(=O)[C@H]([C@@H](C)O)NC(=O)[C@H](CC(=O)O)NC(=O)[C@H](CO)NC(=O)[C@H](CCCNC(=N)N)N(C)C(=O)[C@@H](NC(C)=O)CSSC2(C)C)C(N)=O)C(N)=O)NC(=O)[C@H](CC(C)C)NC(=O)[C@H]([C@@H](C)O)NC(=O)[C@H](CC(=O)O)NC(=O)[C@H](CO)NC(=O)[C@H](CCCNC(=N)N)N(C)C1=O` [compound 204, (Ac-C-N-Me-R-S-D-T-L-Pen-W-k-NH2)2-DIG] (I: Ac-C[NMeR]SDTL[Pen]W[dK]-NH2 / II: Ac-C[NMeR]SDTL[Pen]W[dK]-NH2; disulfide I:1-I:7, II:1-II:7 (inferred); linker I:9-II:9 via Diglycolyl (inferred)), the half-life at 20 μM in the series “Plasma Stability Assay” is above 6 h. In the series “Intestinal Wash Assay”, this molecule displayed a half-life above 3 h. In series [1], the “Cys/CySS (mV)” value is −204 mV.
In “Intestinal Wash Assay”, `CC(=O)N[C@@H]1C(=O)N[C@@H](CCCNC(=N)N)C(=O)N[C@@H](CO)C(=O)N[C@@H](CC(=O)O)C(=O)N[C@@H]([C@@H](C)O)C(=O)N[C@@H](CC(C)C)C(=O)N[C@H](C(=O)N[C@H](CCCCNC(=O)COCC(=O)NCCCC[C@@H](NC(=O)[C@@H]2CSSC(C)(C)[C@H](NC(C)=O)C(=O)N[C@@H](CCCNC(=N)N)C(=O)N[C@@H](CO)C(=O)N[C@@H](CC(=O)O)C(=O)N[C@@H]([C@@H](C)O)C(=O)N[C@@H](CC(C)C)C(=O)N2)C(N)=O)C(N)=O)CSSC1(C)C` [compound 207, (Ac-Pen-R-S-D-T-L-C-k-NH2)2-DIG] (I: Ac-[Pen]RSDTLC[dK]-NH2 / II: Ac-[Pen]RSDTLC[dK]-NH2; disulfide I:1-I:7, II:1-II:7 (inferred); linker I:8-II:8 via Diglycolyl (inferred)) had a half-life below 0.167 h. The “Cys/CySS (mV)” value in series [1] is recorded as −173 mV.
For the molecule `CC(=O)N[C@@H]1C(=O)N(C)[C@@H](CCCNC(=N)N)C(=O)N[C@@H](CO)C(=O)N[C@@H](CC(=O)O)C(=O)N[C@@H]([C@@H](C)O)C(=O)N[C@@H](CC(C)C)C(=O)N[C@H](C(=O)N[C@@H](Cc2c[nH]c3ccccc23)C(=O)N[C@H](CCCCNC(=O)COCC(=O)NCCCC[C@@H](NC(=O)[C@H](Cc2c[nH]c3ccccc23)NC(=O)[C@H]2NC(=O)[C@H](CC(C)C)NC(=O)[C@H]([C@@H](C)O)NC(=O)[C@H](CC(=O)O)NC(=O)[C@H](CO)NC(=O)[C@H](CCCNC(=N)N)N(C)C(=O)[C@@H](NC(C)=O)C(C)(C)SSC2(C)C)C(N)=O)C(N)=O)C(C)(C)SSC1(C)C` [compound 209, (Ac-Pen-N-Me-R-S-D-T-L-Pen-W-k-NH2)2-DIG] (I: Ac-[Pen][NMeR]SDTL[Pen]W[dK]-NH2 / II: Ac-[Pen][NMeR]SDTL[Pen]W[dK]-NH2; disulfide I:1-I:7, II:1-II:7 (inferred); linker I:9-II:9 via Diglycolyl (inferred)), in “Plasma Stability Assay”, the half-life at 20 μM was above 3 h. The molecule also came in with a half-life in the series “Intestinal Wash Assay” above 3 h. Also, the “Cys/CySS (mV)” value in series [1] is listed as below −300 mV.
The molecule `CC(=O)N[C@@H]1C(=O)N(C)[C@@H](CCCNC(=N)N)C(=O)N[C@@H](CO)C(=O)N[C@@H](CC(=O)O)C(=O)N[C@@H]([C@@H](C)O)C(=O)N[C@@H](CC(C)C)C(=O)N[C@H](C(=O)N[C@@H](Cc2c[nH]c3ccccc23)C(=O)N[C@@H](CCC(=O)O)C(=O)N[C@H](CCCCNC(=O)COCC(=O)NCCCC[C@@H](NC(=O)[C@H](CCC(=O)O)NC(=O)[C@H](Cc2c[nH]c3ccccc23)NC(=O)[C@H]2NC(=O)[C@H](CC(C)C)NC(=O)[C@H]([C@@H](C)O)NC(=O)[C@H](CC(=O)O)NC(=O)[C@H](CO)NC(=O)[C@H](CCCNC(=N)N)N(C)C(=O)[C@@H](NC(C)=O)C(C)(C)SSC2(C)C)C(N)=O)C(N)=O)C(C)(C)SSC1(C)C` [compound 217, (Ac-Pen-N-Me-R-S-D-T-L-Pen-W-E-k-NH2)2-DIG] (I: Ac-[Pen][NMeR]SDTL[Pen]WE[dK]-NH2 / II: Ac-[Pen][NMeR]SDTL[Pen]WE[dK]-NH2; disulfide I:1-I:7, II:1-II:7 (inferred); linker I:10-II:10 via Diglycolyl (inferred)) showed a half-life at 20 μM in the series “Plasma Stability Assay” above 2 h. This molecule also gave a half-life in “Intestinal Wash Assay” above 3 h. In series [1], the “Cys/CySS (mV)” value was below −300 mV.
For `CC(=O)N[C@@H]1C(=O)N(C)[C@@H](CCCNC(=N)N)C(=O)N[C@@H](CO)C(=O)N[C@@H](CC(=O)O)C(=O)N[C@@H]([C@@H](C)O)C(=O)N[C@@H](CC(C)C)C(=O)N[C@H](C(=O)N[C@@H](Cc2ccc(C(C)(C)C)cc2)C(=O)N[C@@H](CCC(=O)O)CC(=O)N[C@H](CCCCNC(=O)COCC(=O)NCCCC[C@@H](NC(=O)C[C@H](CCC(=O)O)NC(=O)[C@H](Cc2ccc(C(C)(C)C)cc2)NC(=O)[C@H]2NC(=O)[C@H](CC(C)C)NC(=O)[C@H]([C@@H](C)O)NC(=O)[C@H](CC(=O)O)NC(=O)[C@H](CO)NC(=O)[C@H](CCCNC(=N)N)N(C)C(=O)[C@@H](NC(C)=O)C(C)(C)SSC2(C)C)C(N)=O)C(N)=O)C(C)(C)SSC1(C)C` [compound 218, [Ac-Pen-(N-Me-Arg)-Ser-Asp-Thr-Leu-Pen-Phe(4-tBu)-(β-homoGlu)-(D-Lys)-NH2]2-DIG] (I: Ac-[Pen][NMeR]SDTL[Pen][Phe(4-tBu)][β3hE][dK]-NH2 / II: Ac-[Pen][NMeR]SDTL[Pen][Phe(4-tBu)][β3hE][dK]-NH2; disulfide I:1-I:7, II:1-II:7; linker I:10-II:10 via Diglycolyl), the half-life at 20 μM in “Plasma Stability Assay” is above 6 h. This molecule yielded a half-life in the series “Intestinal Wash Assay” above 6 h. Moreover, the “Cys/CySS (mV)” value in series [1] is listed as below −300 mV.
